Assay results reported in patent US12187773B2, “Modified GIP peptide analogues” (Antag Therapeutics ApS, priority 2018, dated 2025).
*1 amine or outer side, *2 acyl side, *3 side chain or, on linkers, in order; H or OH if unused. Where a SMILES comes first, the peptide text is derived from it. Side-chain parts run from the residue outwards. The star is where a group is joined. C16 diacid = O=C(O)CCCCCCCCCCCCCCC(=O)*; γGlu = O=C(O)[C@H](CCC(=O)[*:2])N[*:1]; AEEA = NCCOCCOCC(=O)O

What was measured:
Assay type in all cases: cell-based
human GIP receptor [1] = target: T1, human GIP receptor (Homo sapiens, UniProt P48546); assay: cAMP agonism (CisBio cAMP Dynamic 2 HTRF assay); settings: HEK293, read-out: cAMP agonism, % Efficacy, Table 1C, HEK-293 cells
T1 sequence (P48546 22-466): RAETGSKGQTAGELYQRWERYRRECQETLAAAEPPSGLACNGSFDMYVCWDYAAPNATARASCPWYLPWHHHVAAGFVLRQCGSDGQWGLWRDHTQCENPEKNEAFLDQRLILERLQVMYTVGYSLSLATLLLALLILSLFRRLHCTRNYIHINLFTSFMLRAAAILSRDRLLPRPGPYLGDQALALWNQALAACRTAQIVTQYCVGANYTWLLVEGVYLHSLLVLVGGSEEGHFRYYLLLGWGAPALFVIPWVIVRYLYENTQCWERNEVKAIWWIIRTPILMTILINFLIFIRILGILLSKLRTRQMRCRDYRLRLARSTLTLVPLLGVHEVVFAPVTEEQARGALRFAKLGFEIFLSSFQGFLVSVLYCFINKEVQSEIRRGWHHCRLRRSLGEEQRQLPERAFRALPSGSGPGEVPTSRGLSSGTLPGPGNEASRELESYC
Procedure: To test for agonistic properties at the GIP receptor, compounds were diluted and added to cells as described above and incubated for 30 min at 37° C. The resulting increase in intracellular cAMP was determined using the CisBio cAMP Dynamic 2 HTRF Assay Kit as described above.

human GIP receptor [2] = target: T1, human GIP receptor; assay: cAMP antagonism (CisBio cAMP Dynamic 2 HTRF assay); parameters: pCMV-Script vector; settings: Table 1C, CisBio, HEK-293 cells; for IC50: cAMP antagonism, nM (IC50), agonist GIP1-42 at EC50
Outline: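 Four-parameter fits of cAMP dose-response gave pIC50. cAMP fall was quantified by HTRF competition, ratio 665/620 nm after 60 min at room temperature, against a cAMP standard curve.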

human GIP receptor [3] = target: T1, human GIP receptor; assay: cAMP accumulation, antagonism (DiscoveRx HitHunter cAMP XS assay); parameters: host or cells: COS-7 (transient, calcium phosphate; pCMV-Script vector)
Procedure: Transient transfected COS-7 cells expressing the human GIP receptor were seeded in white 96-well plates with a density of 3.5*10^4/well. The day after, the cells were washed twice with Hepes buffered saline (HBS) buffer and incubated with HBS and 1 mM 3-isobutyl-1-methylxanthine (IBMX) for 30 min at 37° C. To test for agonistic properties, ligands were added and incubated for 30 min at 37° C. In order to test for antagonistic properties, the cells were preincubated with the antagonists for 10 min prior to the addition of the agonist and subsequent incubated for 20 additional min. The HitHunter™ cAMP XS assay (DiscoveRx) was carried out according to the manufacturer's instructions.
In order to develop a GIP receptor antagonist with improved antagonistic properties, individual amino acid substitutions were conducted on GIP(3-30)NH2 and in particular at positions: 16, 18, 30 or 3, 16, 18, 30. The obtained peptides were lipidated at position 18 directly or via a linker. Both the agonistic and antagonistic profiles of the compounds were tested in cAMP accumulation experiments done in transiently transfected COS-7 cells expressing the human GIP receptor. To investigate if these mutated analogues still retained their antagonistic properties, their ability to inhibit a GIP-mediated cAMP response corresponding to 50-80% of maximum activation was examined.

human GIP receptor [4] = target: T1, human GIP receptor; assay: cAMP accumulation, agonism (DiscoveRx HitHunter cAMP XS assay); parameters: host or cells: COS-7 (transient, calcium phosphate; pCMV-Script vector); settings: for Emax: COS-7, read-out: cAMP agonism, Emax
Outline: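 cAMP accumulation measured by HitHunter cAMP XS in COS-7 cells transiently expressing human GIP receptor, after 30 min in HBS with 1 mM IBMX at 37 °C. Antagonists preincubated 10 min before GIP giving 50-80% of maximum, then 20 min more; agonist mode used 30 min ligand exposure.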

[5] = cAMP antagonism, nM (IC50), Table 1B, DiscoveRx, transiently transfected COS-7 cells

Compound	Emax (human GIP receptor [1])	cAMP antagonism, % inhib (human GIP receptor [2])	IC50 (human GIP receptor [2])	IC50 (human GIP receptor [3]; [5])	Emax (human GIP receptor [4])	IC50 (human GIP receptor [3]; IC50-value (GIPR antagonism), Examples 1 and 2, values of Tables 1B and 2)	cAMP antagonism, % inhib (human GIP receptor [3]; Table 1B, DiscoveRx, COS-7 cells, % inhibition of Emax)	cAMP agonism, Emax (human GIP receptor [4]; Table 1B, DiscoveRx, COS-7 cells)
CC[C@H](C)[C@H](NC(=O)[C@H](CO)NC(=O)[C@H](Cc1ccc(O)cc1)NC(=O)[C@H](CC(=O)O)NC(=O)[C@H](CO)NC(=O)[C@@H](NC(=O)[C@H](Cc1ccccc1)NC(=O)[C@@H](NC(=O)CNC(=O)[C@@H](N)CO)[C@@H](C)O)[C@@H](C)CC)C(=O)N[C@@H](C)C(=O)N[C@@H](CCSC)C(=O)N[C@@H](CC(=O)O)C(=O)N[C@@H](CCCNC(=N)N)C(=O)N[C@H](C(=O)N[C@@H](CCCCNC(=O)CCCCCCCCCCCCCCC(=O)O)C(=O)N[C@@H](CCC(N)=O)C(=O)N[C@@H](CCC(N)=O)C(=O)N[C@@H](CC(=O)O)C(=O)N[C@@H](Cc1ccccc1)C(=O)N[C@H](C(=O)N[C@@H](CC(N)=O)C(=O)N[C@@H](Cc1c[nH]c2ccccc12)C(=O)N[C@@H](CC(C)C)C(=O)N[C@@H](CC(C)C)C(=O)N[C@@H](C)C(=O)N[C@@H](CCC(N)=O)C(=O)N[C@@H](CCCNC(=N)N)C(=O)O)C(C)C)[C@@H](C)CC [AT259] (H-SGTFISDYSIAMDRIK(C16 diacid)QQDFVNWLLAQR-OH; N-terminus assumed)	9%	72%	58.4 nM	19 nM	20%			
CC[C@H](C)[C@H](NC(=O)[C@H](CO)NC(=O)[C@H](Cc1ccc(O)cc1)NC(=O)[C@H](CC(=O)O)NC(=O)[C@H](CO)NC(=O)[C@@H](NC(=O)[C@H](Cc1ccccc1)NC(=O)[C@@H](NC(=O)CNC(=O)CN)[C@@H](C)O)[C@@H](C)CC)C(=O)N[C@@H](C)C(=O)N[C@@H](CCSC)C(=O)N[C@@H](CC(=O)O)C(=O)N[C@@H](CCCNC(=N)N)C(=O)N[C@H](C(=O)N[C@@H](CCCCNC(=O)COCCOCCNC(=O)CC[C@H](NC(=O)CCCCCCCCCCCCCCC(=O)O)C(=O)O)C(=O)N[C@@H](CCC(N)=O)C(=O)N[C@@H](CCC(N)=O)C(=O)N[C@@H](CC(=O)O)C(=O)N[C@@H](Cc1ccccc1)C(=O)N[C@H](C(=O)N[C@@H](CC(N)=O)C(=O)N[C@@H](Cc1c[nH]c2ccccc12)C(=O)N[C@@H](CC(C)C)C(=O)N[C@@H](CC(C)C)C(=O)N[C@@H](C)C(=O)N[C@@H](CCC(N)=O)C(=O)N[C@@H](CCCNC(=N)N)C(=O)O)C(C)C)[C@@H](C)CC [AT269] (HELM PEPTIDE1{G.G.T.F.I.S.D.Y.S.I.A.M.D.R.I.K.Q.Q.D.F.V.N.W.L.L.A.Q.R}|PEPTIDE2{[O=C(O)CCCCCCCCCCCCCCC(=O)[*:2]].[gGlu].[O=C(COCCOCCN[*:1])[*:2]]}$PEPTIDE1,PEPTIDE2,16:R3-3:R2$$$V2.0; N-terminus assumed)	0%			91 nM	12%			
CC[C@H](C)[C@H](NC(=O)[C@H](CO)NC(=O)[C@H](Cc1ccc(O)cc1)NC(=O)[C@H](CC(=O)O)NC(=O)[C@H](CO)NC(=O)[C@@H](NC(=O)[C@H](Cc1ccccc1)NC(=O)[C@@H](NC(=O)CNC(=O)CN)[C@@H](C)O)[C@@H](C)CC)C(=O)N[C@@H](C)C(=O)N[C@@H](CCSC)C(=O)N[C@@H](CC(=O)O)C(=O)N[C@@H](CCCNC(=N)N)C(=O)N[C@H](C(=O)N[C@@H](CCCCNC(=O)COCCOCCNC(=O)COCCOCCNC(=O)CC[C@H](NC(=O)CCCCCCCCCCCCCCC(=O)O)C(=O)O)C(=O)N[C@@H](CCC(N)=O)C(=O)N[C@@H](CCC(N)=O)C(=O)N[C@@H](CC(=O)O)C(=O)N[C@@H](Cc1ccccc1)C(=O)N[C@H](C(=O)N[C@@H](CC(N)=O)C(=O)N[C@@H](Cc1c[nH]c2ccccc12)C(=O)N[C@@H](CC(C)C)C(=O)N[C@@H](CC(C)C)C(=O)N[C@@H](C)C(=O)N[C@@H](CCC(N)=O)C(=O)N[C@@H](CCCNC(=N)N)C(=O)O)C(C)C)[C@@H](C)CC [AT275] (H-GGTFISDYSIAMDRIK([AEEA-AEEA-γGlu-C16 diacid])QQDFVNWLLAQR-OH; N-terminus assumed)	5%	66%	126 nM	43 nM	5%			
CC[C@H](C)[C@H](NC(=O)[C@H](CO)NC(=O)[C@H](Cc1ccc(O)cc1)NC(=O)[C@H](CC(=O)O)NC(=O)[C@H](CO)NC(=O)[C@@H](NC(=O)[C@H](Cc1ccccc1)NC(=O)[C@@H](NC(=O)CNC(=O)[C@@H]1CCCN1)[C@@H](C)O)[C@@H](C)CC)C(=O)N[C@@H](C)C(=O)N[C@@H](CCSC)C(=O)N[C@@H](CC(=O)O)C(=O)N[C@@H](CCCNC(=N)N)C(=O)N[C@H](C(=O)N[C@@H](CCCCNC(=O)COCCOCCNC(=O)COCCOCCNC(=O)CC[C@H](NC(=O)CCCCCCCCCCCCCCC(=O)O)C(=O)O)C(=O)N[C@@H](CCC(N)=O)C(=O)N[C@@H](CCC(N)=O)C(=O)N[C@@H](CC(=O)O)C(=O)N[C@@H](Cc1ccccc1)C(=O)N[C@H](C(=O)N[C@@H](CC(N)=O)C(=O)N[C@@H](Cc1c[nH]c2ccccc12)C(=O)N[C@@H](CC(C)C)C(=O)N[C@@H](CC(C)C)C(=O)N[C@@H](C)C(=O)N[C@@H](CCC(N)=O)C(=O)N[C@@H](CCCNC(=N)N)C(=O)O)C(C)C)[C@@H](C)CC [AT279] (H-PGTFISDYSIAMDRIK([AEEA-AEEA-γGlu-C16 diacid])QQDFVNWLLAQR-OH; N-terminus assumed)	14%	81%		19 nM	17%			
CC[C@H](C)[C@H](NC(=O)[C@H](CO)NC(=O)[C@H](Cc1ccc(O)cc1)NC(=O)[C@H](CC(=O)O)NC(=O)[C@H](CO)NC(=O)[C@@H](NC(=O)[C@H](Cc1ccccc1)NC(=O)[C@@H](NC(=O)CNC(=O)[C@@H](N)CCC(=O)O)[C@@H](C)O)[C@@H](C)CC)C(=O)N[C@@H](C)C(=O)N[C@@H](CCSC)C(=O)N[C@@H](CC(=O)O)C(=O)N[C@@H](CCCNC(=N)N)C(=O)N[C@H](C(=O)N[C@@H](CCCCNC(=O)COCCOCCNC(=O)CC[C@H](NC(=O)CCCCCCCCCCCCCCC(=O)O)C(=O)O)C(=O)N[C@@H](CCC(N)=O)C(=O)N[C@@H](CCC(N)=O)C(=O)N[C@@H](CC(=O)O)C(=O)N[C@@H](Cc1ccccc1)C(=O)N[C@H](C(=O)N[C@@H](CC(N)=O)C(=O)N[C@@H](Cc1c[nH]c2ccccc12)C(=O)N[C@@H](CC(C)C)C(=O)N[C@@H](CC(C)C)C(=O)N[C@@H](C)C(=O)N[C@@H](CCC(N)=O)C(=O)N[C@@H](CCCNC(=N)N)C(N)=O)C(C)C)[C@@H](C)CC [AT373] (HELM PEPTIDE1{E.G.T.F.I.S.D.Y.S.I.A.M.D.R.I.K.Q.Q.D.F.V.N.W.L.L.A.Q.R.[am]}|PEPTIDE2{[O=C(O)CCCCCCCCCCCCCCC(=O)[*:2]].[gGlu].[O=C(COCCOCCN[*:1])[*:2]]}$PEPTIDE1,PEPTIDE2,16:R3-3:R2$$$V2.0; N-terminus assumed)	0%	91%	12.6 nM			10 nM	94%	No Agonism
